Columns and labels:
[1] = target: T1, human adenosine A1 receptor (Homo sapiens, UniProt P30542); assay: Competition binding assay: displacement of [^3H]‐NECA on CHOhA1R cell membranes
T1 sequence (P30542 1-326): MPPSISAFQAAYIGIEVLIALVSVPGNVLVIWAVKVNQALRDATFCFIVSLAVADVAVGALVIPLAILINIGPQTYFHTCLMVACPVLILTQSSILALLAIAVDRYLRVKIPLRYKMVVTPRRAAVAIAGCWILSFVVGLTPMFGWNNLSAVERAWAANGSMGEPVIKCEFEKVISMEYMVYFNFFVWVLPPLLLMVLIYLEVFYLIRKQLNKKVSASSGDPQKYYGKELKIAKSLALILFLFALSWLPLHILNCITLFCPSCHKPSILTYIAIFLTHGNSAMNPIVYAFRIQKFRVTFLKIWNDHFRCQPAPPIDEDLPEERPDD

A1 receptor = conditions: 25°C; ref Guo et al., 2013; cited from earlier work
[2] = target: T1, human adenosine A1 receptor; assay: Two‐state competition association assay with [^3H]‐NECA; format: binding

IC50 [1]	Kb ([2]; KB,2, KB,2 = k8/k7, R2 state, 30°C, DPCPX and LUF5962 values ambiguous)	kon ([2]; read-out: k5 (association rate constant of competitor at R1 state))	koff ([2]; read-out: k6 (dissociation rate constant of competitor at R1 state))	k6 (dissociation rate constant of competitor at R1 state) ([2]; two‐state model, 30°C, mean ± SEM of five experiments)	SMILES	association rate (A1 receptor)
74.1 nM	15 nM	167000 M⁻¹ s⁻¹	0.00383 s⁻¹	–	c1ccc(-c2nc(-c3ccccc3)c3nc(C4CCCC4)[nH]c3n2)cc1 [LUF5962, 8‐cyclopentyl‐2,6‐diphenyl‐9H‐purine]	1.2e+08 M⁻¹ min⁻¹
–	–	–	–	0.78 ± 1.42 min⁻¹	CCCn1c(=O)c2[nH]c(C3CCCC3)nc2n(CCC)c1=O [DPCPX, 1,3‐dipropyl‐8‐cyclopentylxanthine]	2e+08 M⁻¹ min⁻¹
